The text below walks through data of patent publication US11718618B2, “Substituted pyrido[2,1-a]isoquinolines as VMAT2 inhibitors” (priority 2021, dated 2023).

The target of data set [1] is human VMAT2 (Homo sapiens (Human), UniProt Q05940). Description: VMAT2 radioligand binding, 3H-dihydrotetrabenazine competition on human platelet homogenate. As for the experimental part:
Examples of techniques for determining the capability of a compound to inhibit VMAT2 are provided below. The procedure was adapted from that described previously (see, e.g., Near, (1986), Mol. Pharmacol. 30: 252-57; Teng, et al., J. Neurochem. 71, 258-65, 1998). Homogenates from human platelets were prepared by homogenization and then washed by centrifugation as described previously (see, e.g., Hoare et al., (2003) Peptides 24:1881-97).
The human VMAT2 Ki values for the compounds listed in Table 15A and Table 15B were determined using the following procedures. Compound dilution series in DMSO were generated from either powder stocks by hand, or from DMSO stocks using serial dilution on a Vantage (Hamilton), or direct dilution using an Echo 655 (Beckman). In a total volume of 0.145 to 0.150 mL in low-binding 96-well plates (Corning #3605), twelve concentrations of test compound were competed against 10 nM ^3H-dihydrotetrabenezine (American Radiolabeled Chemicals) on human platelet homogenate (30 μg membrane protein per well) in VMAT2 binding buffer (Dulbecco's phosphate buffered saline, 1 mM EDTA, pH 7.4). Following incubation at 25° C. for 90 minutes, bound radioligand was collected by rapid filtration onto either GF/B or GF/C glass fiber filters, pretreated with 0.100 polyethylenimine, using either a Unifilter-96 Harvester (PerkinElmer) or Microlab Star (Hamilton). Following harvesting the filter plates were washed with 0.8 mL VMAT2 binding buffer, and bound radioligand was quantified by scintillation counting using a Topcount NXT or Microplate Counter Microbeta (PerkinElmer).

The nature of data set [2]: Stability of compounds in human liver microsomes. Type of data set: in vitro ADME. The conditions noted are these: for CLint scaled at 0.5 μM / half-life at 0.5 μM: both sexes, pH 7.4; for CLint scaled at 0.5 μM: liver microsomes, calculated from HLM half-life, read-out: HLM Scaled Intrinsic Clearance; for CLint scaled at 0.5 μM / Predicted Max. Bioavailability (% F) / HLM Predicted Systemic Clearance: human; for half-life at 0.5 μM: 0.5 μM compound, 0.5 mg/mL human liver microsomes, 37° C., maxed at 420 minutes, read-out: HLM Elimination half-life (t1/2, min); for Predicted Max. Bioavailability (% F): predicted from HLM data; for HLM Predicted Systemic Clearance: scaled from HLM half-life (Obach method). On the procedure: A test compound (0.5 μM) was incubated with pooled mixed gender liver microsomes from humans (0.5 mg/mL total protein) at 37° C. in the presence of an NADPH-generating system containing 50 mM, pH 7.4 potassium phosphate buffer, 3 mM magnesium chloride, 1 mM EDTA, 1 mM NADP, 5 mM glusose-6-phosphate, and 1 Unit/mL glucose-6-phosphate dehydrogenase. All concentrations were relative to the final incubation volume of 125 μL. Incubations were conducted at 37° C. for 0, 5, 10, 20, 40, and 60 minutes in a water bath and terminated by rapid mixing with 150 μL of ice-cold acetonitrile containing internal standard. Precipitated proteins were removed by centrifugation prior to LC-MS/MS analysis. Aliquots of the resulting supernatant fractions were analyzed by LC-MS/MS monitoring for depletion of parent compound. The resultant peak area ratio versus time data was fitted to a non-linear regression using XLfit Scientific Curve Fitting Software (IDBS Ltd., Surrey, UK) and the elimination half-life (t1/2, min) was calculated from the slope. […] Additional values calculated included predicted extraction ratio and predicted maximum bioavailability.

Where [3] appears, read: 10 nM 3H-dihydrotetrabenazine, human platelet homogenate, 25° C., 90 minutes, read-out: VMAT2 Ki.

SMILES strings stand for the structures. Where two headings read alike, the source gives them in different places.

Sequence of human VMAT2 (Q05940 whole entry): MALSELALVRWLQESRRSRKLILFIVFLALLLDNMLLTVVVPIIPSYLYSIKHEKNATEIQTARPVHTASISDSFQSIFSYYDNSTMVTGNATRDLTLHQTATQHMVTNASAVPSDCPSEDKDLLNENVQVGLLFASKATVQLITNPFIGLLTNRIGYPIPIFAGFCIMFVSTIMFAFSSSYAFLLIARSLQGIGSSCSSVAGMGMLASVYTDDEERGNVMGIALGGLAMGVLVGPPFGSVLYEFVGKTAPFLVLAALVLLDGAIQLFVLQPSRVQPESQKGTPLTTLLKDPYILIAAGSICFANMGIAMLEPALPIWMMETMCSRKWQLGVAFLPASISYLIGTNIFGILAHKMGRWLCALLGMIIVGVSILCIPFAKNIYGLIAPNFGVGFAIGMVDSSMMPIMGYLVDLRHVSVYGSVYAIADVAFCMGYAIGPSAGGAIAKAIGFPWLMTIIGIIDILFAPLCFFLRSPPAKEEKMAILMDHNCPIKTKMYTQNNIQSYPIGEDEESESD

One may read the Ki as a dissociation constant, usually derived from enzyme kinetics or from competition with a known ligand. Consider `COc1cc2c(cc1OCCF)CCN1C[C@@H](CC(C)(C)C)[C@H](O)C[C@H]21` [Compound 4-18, (2R,3R,11bR)-3-(2,2-dimethylpropyl)-9-(2-fluoroethoxy)-10-methoxy-1H,2H,3H,4H,6H,7H,11bH-pyrido[2,1-a]isoquinolin-2-ol], for which, in data set [1] (setting [3]), the Ki came to 5.5 nM. For the same compound, in data set [2], the CLint scaled at 0.5 μM was 8.05 mL/min/kg, the half-life at 0.5 μM is 155 min, the “Predicted Max. Bioavailability (% F)” value was 71 % F and the “HLM Predicted Systemic Clearance” value was 5.74 mL/min/kg.

Turning to `COc1cc2c(cc1OCC1(F)COC1)CCN1C[C@@H](CC(C)(C)C)[C@H](O)C[C@H]21` [Compound 4-19, (2R,3R,11bR)-3-(2,2-dimethylpropyl)-9-[(3-fluorooxetan-3-yl)methoxy]-10-methoxy-1H,2H,3H,4H,6H,7H,11bH-pyrido[2,1-a]isoquinolin-2-ol], in data set [1] (setting [3]), the Ki is 8.1 nM. In data set [2], the CLint scaled at 0.5 μM is 14.2 mL/min/kg, the half-life at 0.5 μM is 88 min, the “Predicted Max. Bioavailability (% F)” value is on record as 59 % F and the “HLM Predicted Systemic Clearance” value was 8.3 mL/min/kg.

As for `COc1cc2c(cc1OCC1COC1)CCN1C[C@@H](CC(C)(C)C)[C@H](O)C[C@H]21` [Compound 4-22, (2R,3R,11bR)-3-(2,2-dimethylpropyl)-10-methoxy-9-(oxetan-3-ylmethoxy)-1H,2H,3H,4H,6H,7H,11bH-pyrido[2,1-a]isoquinolin-2-ol], the Ki in data set [1] (setting [3]) was 14 nM. For the same compound, in data set [2], the CLint scaled at 0.5 μM is 9.6 mL/min/kg, the half-life at 0.5 μM amounted to 130 min, the “Predicted Max. Bioavailability (% F)” value is listed as 68 % F and the “HLM Predicted Systemic Clearance” value was 6.49 mL/min/kg.

As to `COc1cc2c(cc1OCCOC1(C#N)CCC1)CCN1C[C@@H](CC(C)(C)C)[C@H](O)C[C@H]21` [Compound 4-23, 1-(2-{[(2R,3R,11bR)-3-(2,2-dimethylpropyl)-2-hydroxy-10-methoxy-1H,2H,3H,4H,6H,7H,11bH-pyrido[2,1-a]isoquinolin-9-yl]oxy}ethoxy)cyclobutane-1-carbonitrile], the Ki in data set [1] (setting [3]) was determined as 0.41 nM. Also, in data set [2], the CLint scaled at 0.5 μM is 58.5 mL/min/kg, the half-life at 0.5 μM turned out to be 21 min, the “Predicted Max. Bioavailability (% F)” value is 25 % F and the “HLM Predicted Systemic Clearance” value was 14.9 mL/min/kg.

Take `COc1cc2c(cc1OCC#N)CCN1C[C@@H](CC(C)(C)C)[C@H](O)C[C@H]21` [Compound 4-24, 2-{[(2R,3R,11bR)-3-(2,2-dimethylpropyl)-2-hydroxy-10-methoxy-1H,2H,3H,4H,6H,7H,11bH-pyrido[2,1-a]isoquinolin-9-yl]oxy}acetonitrile]: the Ki in data set [1] (setting [3]) stood at 35 nM. For the same compound, in data set [2], the CLint scaled at 0.5 μM is 10.7 mL/min/kg, the half-life at 0.5 μM is 117 min, the “Predicted Max. Bioavailability (% F)” value is 65 % F and the “HLM Predicted Systemic Clearance” value was 6.97 mL/min/kg.

As to `COc1cc2c(cc1OCC1(O)CCC1)CCN1C[C@@H](CC(C)(C)C)[C@H](O)C[C@H]21` [Compound 4-25, (2R,3R,11bR)-3-(2,2-dimethylpropyl)-9-[(1-hydroxycyclobutyl)methoxy]-10-methoxy-1H,2H,3H,4H,6H,7H,11bH-pyrido[2,1-a]isoquinolin-2-ol], the Ki in data set [1] (setting [3]) worked out at 5.5 nM. In data set [2], the CLint scaled at 0.5 μM is 11.4 mL/min/kg, the half-life at 0.5 μM stood at 109 min, the “Predicted Max. Bioavailability (% F)” value was 64 % F and the “HLM Predicted Systemic Clearance” value was 7.26 mL/min/kg.

On to `COCCOc1cc2c(cc1OC)[C@H]1C[C@@H](O)[C@H](CC(C)(C)C)CN1CC2` [Compound 4-26, (2R,3R,11bR)-3-(2,2-dimethylpropyl)-10-methoxy-9-(2-methoxyethoxy)-1H,2H,3H,4H,6H,7H,11bH-pyrido[2,1-a]isoquinolin-2-ol], for which, in data set [1] (setting [3]), the Ki was 14 nM. In addition, in data set [2], the CLint scaled at 0.5 μM was 14.2 mL/min/kg, the half-life at 0.5 μM was determined as 88 min, the “Predicted Max. Bioavailability (% F)” value was 58 % F and the “HLM Predicted Systemic Clearance” value is 8.32 mL/min/kg.

On to `COc1cc2c(cc1OCCCF)CCN1C[C@@H](CC(C)(C)C)[C@H](O)C[C@H]21` [Compound 4-28, (2R,3R,11bR)-3-(2,2-dimethylpropyl)-9-(3-fluoropropoxy)-10-methoxy-1H,2H,3H,4H,6H,7H,11bH-pyrido[2,1-a]isoquinolin-2-ol], for which the Ki in data set [1] (setting [3]) was 0.48 nM. For the same compound, in data set [2], the CLint scaled at 0.5 μM was 31.8 mL/min/kg, the half-life at 0.5 μM amounted to 39 min, the “Predicted Max. Bioavailability (% F)” value was 39 % F and the “HLM Predicted Systemic Clearance” value is 12.28 mL/min/kg.

As for `COc1cc2c(cc1OCC1(C#N)CC1)CCN1C[C@@H](CC(C)(C)C)[C@H](O)C[C@H]21` [Compound 4-29, 1-({[(2R,3R,11bR)-3-(2,2-dimethylpropyl)-2-hydroxy-10-methoxy-1H,2H,3H,4H,6H,7H,11bH-pyrido[2,1-a]isoquinolin-9-yl]oxy}methyl)cyclopropane-1-carbonitrile], the Ki in data set [1] (setting [3]) is 83 nM. In data set [2], the CLint scaled at 0.5 μM is ≤ 2.97 mL/min/kg, the half-life at 0.5 μM was ≥ 420 min, the “Predicted Max. Bioavailability (% F)” value was ≥87 % F and the “HLM Predicted Systemic Clearance” value is ≤2.59 mL/min/kg.

Take `COc1cc2c(cc1OC1COC1)CCN1C[C@@H](CC(C)(C)C)[C@H](O)C[C@H]21` [Compound 4-30, (2R,3R,11bR)-3-(2,2-dimethylpropyl)-10-methoxy-9-(oxetan-3-yloxy)-1H,2H,3H,4H,6H,7H,11bH-pyrido[2,1-a]isoquinolin-2-ol]: in data set [1] (setting [3]), the Ki is 12 nM. Also, in data set [2], the CLint scaled at 0.5 μM is ≤ 2.97 mL/min/kg, the half-life at 0.5 μM is ≥ 420 min, the “Predicted Max. Bioavailability (% F)” value is ≥87 % F and the “HLM Predicted Systemic Clearance” value is ≤2.59 mL/min/kg.

`COc1cc2c(cc1OC1CCC1)CCN1C[C@@H](CC(C)(C)C)[C@H](O)C[C@H]21` [Compound 4-32, (2R,3R,11bR)-9-cyclobutoxy-3-(2,2-dimethylpropyl)-10-methoxy-1H,2H,3H,4H,6H,7H,11bH-pyrido[2,1-a]isoquinolin-2-ol]: the Ki in data set [1] (setting [3]) was 0.59 nM. Also, in data set [2], the CLint scaled at 0.5 μM is 66.5 mL/min/kg, the half-life at 0.5 μM is 19 min, the “Predicted Max. Bioavailability (% F)” value is reported as 23 % F and the “HLM Predicted Systemic Clearance” value is 15.38 mL/min/kg.

Consider `COc1cc2c(cc1OCc1ncc(C)o1)CCN1C[C@@H](CC(C)(C)C)[C@H](O)C[C@H]21` [Compound 4-36, (2R,3R,11bR)-3-(2,2-dimethylpropyl)-10-methoxy-9-[(5-methyl-1,3-oxazol-2-yl)methoxy]-1H,2H,3H,4H,6H,7H,11bH-pyrido[2,1-a]isoquinolin-2-ol], for which the Ki in data set [1] (setting [3]) was determined as 51 nM. Further, in data set [2], the CLint scaled at 0.5 μM is 13.4 mL/min/kg, the half-life at 0.5 μM stood at 93 min, the “Predicted Max. Bioavailability (% F)” value was 60 % F and the “HLM Predicted Systemic Clearance” value is 8.02 mL/min/kg.

In the case of `COc1cc2c(cc1OC(C)C)CCN1C[C@@H](CC(C)(C)C)[C@H](O)C[C@H]21` [Compound 4-38, (2R,3R,11bR)-3-(2,2-dimethylpropyl)-10-methoxy-9-(propan-2-yloxy)-1H,2H,3H,4H,6H,7H,11bH-pyrido[2,1-a]isoquinolin-2-ol], in data set [1] (setting [3]), the Ki amounted to 3.7 nM. In data set [2], the CLint scaled at 0.5 μM is 21.5 mL/min/kg, the half-life at 0.5 μM came to 58 min, the “Predicted Max. Bioavailability (% F)” value was 48 % F and the “HLM Predicted Systemic Clearance” value was 10.35 mL/min/kg.

For `[2H]C([2H])([2H])C([2H])([2H])Oc1cc2c(cc1OC)[C@H]1C[C@@H](O)[C@H](CC(C)(C)C)CN1CC2` [Compound 4-40, (2R,3R,11bR)-3-(2,2-dimethylpropyl)-9-(ethoxy-d5)-10-methoxy-1H,2H,3H,4H,6H,7H,11bH-pyrido[2,1-a]isoquinolin-2-ol], the Ki in data set [1] was 1.4 nM. In data set [2], the CLint scaled at 0.5 μM is 23.9 mL/min/kg, the half-life at 0.5 μM came out at 52 min, the “Predicted Max. Bioavailability (% F)” value is recorded as 46 % F and the “HLM Predicted Systemic Clearance” value is 10.88 mL/min/kg.
